Reference: the NIST ThermoML archive (doi:10.1016/j.jct.2011.12.010)

Experiment: molar heat capacity at constant pressure
Details: 101.33 kPa, Vacuum adiabatic calorimetry

CC(C)(C)Cc1ccccc1 [(2,2-dimethylpropyl)benzene]
molar heat capacity at constant pressure [J/K/mol]
Details | Crystal | Liquid
5 K | 0.3584 | –
6.43 K | 0.79 | –
6.83 K | 0.95 | –
7.1 K | 1.05 | –
7.5 K | 1.2 | –
7.91 K | 1.41 | –
8.27 K | 1.62 | –
8.57 K | 1.81 | –
8.9 K | 2.04 | –
9.24 K | 2.3 | –
9.58 K | 2.54 | –
9.91 K | 2.77 | –
10 K | 2.835 | –
10.24 K | 3 | –
10.55 K | 3.28 | –
10.86 K | 3.54 | –
11.15 K | 3.76 | –
11.45 K | 4.08 | –
11.74 K | 4.36 | –
12.04 K | 4.69 | –
12.51 K | 5.2 | –
13.17 K | 6 | –
13.78 K | 6.68 | –
14.4 K | 7.42 | –
14.99 K | 8.11 | –
15 K | 8.156 | –
15.59 K | 8.88 | –
16.17 K | 9.65 | –
16.76 K | 10.42 | –
17.35 K | 11.18 | –
18.02 K | 12.15 | –
18.82 K | 13.47 | –
19.44 K | 14.45 | –
20 K | 15.37 | –
20.07 K | 15.49 | –
20.87 K | 16.75 | –
21.6 K | 17.96 | –
22.31 K | 19.18 | –
22.92 K | 20.15 | –
23.68 K | 21.34 | –
24.39 K | 22.44 | –
25 K | 23.31 | –
25.18 K | 23.58 | –
25.93 K | 24.66 | –
26.71 K | 25.76 | –
27.52 K | 26.89 | –
28.33 K | 28.13 | –
29.16 K | 29.24 | –
30 K | 30.36 | –
30.01 K | 30.42 | –
30.87 K | 31.42 | –
31.75 K | 32.74 | –
32.64 K | 33.75 | –
33.41 K | 34.7 | –
34.46 K | 36.13 | –
35 K | 36.76 | –
35.4 K | 37.3 | –
36.35 K | 38.43 | –
37.32 K | 39.67 | –
38.31 K | 40.94 | –
39.3 K | 41.89 | –
40 K | 42.83 | –
40.33 K | 43.02 | –
41.36 K | 44.25 | –
42.4 K | 45.57 | –
43.47 K | 46.7 | –
44.54 K | 47.93 | –
45 K | 48.21 | –
45.63 K | 48.9 | –
46.73 K | 49.79 | –
47.83 K | 50.85 | –
48.96 K | 51.7 | –
50 K | 52.68 | –
50.08 K | 52.7 | –
51.22 K | 53.77 | –
52.37 K | 54.62 | –
53.54 K | 55.66 | –
54.59 K | 56.42 | –
56 K | 57.64 | –
57.09 K | 58.58 | –
58.29 K | 59.72 | –
59.5 K | 60.71 | –
60 K | 61.21 | –
60.59 K | 61.7 | –
61.93 K | 63.06 | –
63.16 K | 64.15 | –
64.57 K | 65.26 | –
65.64 K | 66.12 | –
66.89 K | 67.2 | –
68.15 K | 68 | –
69.4 K | 69.06 | –
70 K | 69.54 | –
70.99 K | 70.19 | –
72.9 K | 71.7 | –
74.83 K | 72.92 | –
76.87 K | 74.43 | –
78.7 K | 75.75 | –
79.98 K | 76.76 | –
80 K | 76.67 | –
80.65 K | 77.08 | –
81.93 K | 78.1 | –
82.61 K | 78.8 | –
83.87 K | 79.5 | –
84.58 K | 80.15 | –
85.81 K | 80.93 | –
86.55 K | 81.42 | –
87.75 K | 82.4 | –
88.51 K | 82.92 | –
89.69 K | 83.89 | –
90 K | 84.14 | –
90.49 K | 84.64 | –
91.64 K | 85.39 | –
92.48 K | 86.14 | –
93.59 K | 86.97 | –
95.54 K | 88.3 | –
97.5 K | 89.8 | –
99.45 K | 91.29 | –
100 K | 91.54 | –
101.41 K | 92.54 | –
103.37 K | 94.12 | –
105.32 K | 95.53 | –
107.28 K | 97.03 | –
109.23 K | 98.11 | –
110 K | 98.78 | –
111.18 K | 99.61 | –
113.14 K | 100.85 | –
115.09 K | 102.6 | –
117.46 K | 104.26 | –
119.37 K | 105.34 | –
120 K | 105.9 | –
121.31 K | 106.92 | –
123.26 K | 108 | –
125.2 K | 109.67 | –
127.13 K | 110.75 | –
129.07 K | 111.99 | –
130 K | 112.8 | –
131 K | 113.49 | –
132.93 K | 115.07 | –
134.85 K | 116.15 | –
136.78 K | 117.4 | –
138.7 K | 118.65 | –
140 K | 119.7 | –
140.61 K | 120.14 | –
142.53 K | 121.39 | –
144.43 K | 122.97 | –
146.34 K | 124.22 | –
148.22 K | 125.63 | –
150 K | 126.5 | –
150.12 K | 126.88 | –
152.5 K | 128.37 | –
155.37 K | 130.04 | –
158.24 K | 132.28 | –
160 K | 133.4 | –
161.11 K | 134.11 | –
163.99 K | 135.94 | –
166.87 K | 138.27 | –
169.76 K | 140.35 | –
170 K | 140.3 | –
172.66 K | 141.93 | –
175.55 K | 144.34 | –
178.45 K | 146.25 | –
180 K | 147.4 | –
181.36 K | 148.33 | –
184.27 K | 150.32 | –
187.18 K | 152.57 | –
190 K | 154.6 | –
190.11 K | 154.9 | –
194.33 K | 157.56 | –
197.18 K | 160.05 | –
200 K | 162 | –
200.37 K | 162.3 | –
203.56 K | 164.63 | –
206.46 K | 166.79 | –
209.27 K | 168.78 | –
210 K | 169.1 | –
212.11 K | 170.36 | –
215.02 K | 172.52 | –
217.92 K | 174.27 | –
220 K | 175.9 | –
220.82 K | 176.51 | –
223.7 K | 178.18 | –
226.59 K | 180.26 | –
229.46 K | 182.33 | –
230 K | 182.6 | –
232.33 K | 184.33 | –
235.2 K | 186.58 | –
238.05 K | 188.32 | –
239.91 K | 189.73 | –
240 K | 189.4 | –
240.89 K | 190.48 | –
240.92 K | 190.57 | –
241.92 K | 190.98 | –
242.92 K | 191.9 | –
243.72 K | 192.4 | –
243.92 K | 192.73 | –
244.93 K | 193.73 | –
246 K | 195.64 | –
246.56 K | 197.88 | –
246.6 K | 202.12 | –
247.1 K | 197.38 | –
248.19 K | 200.88 | –
249.28 K | 206.03 | –
249.34 K | 207.61 | –
250 K | 196.1 | –
250.36 K | 213.26 | –
251.42 K | 222.66 | –
252.01 K | 245.27 | –
252.39 K | 417.05 | –
252.46 K | 249.27 | –
253.4 K | 315.03 | –
254.15 K | 685.44 | –
254.18 K | 538.11 | –
254.69 K | 1232.2 | –
254.95 K | 2919.2 | –
255.01 K | 4462.3 | –
255.06 K | 8092.4 | –
255.09 K | 5555.7 | –
255.17 K | 8555.5 | –
255.21 K | 9885.8 | –
255.43 K | 199.7 | 249.6
256.43 K | – | 250.01
257.37 K | – | 252.18
257.44 K | – | 250.6
258.44 K | – | 251.09
258.78 K | – | 252.09
259.45 K | – | 251.68
260 K | – | 252
260.46 K | – | 252.26
261.48 K | – | 252.92
262.48 K | – | 253.42
263.49 K | – | 254
264.48 K | – | 254.59
264.99 K | – | 254.92
265.49 K | – | 255.09
266.49 K | – | 255.67
267.49 K | – | 256
268.67 K | – | 256.58
270 K | – | 257.2
271.15 K | – | 257.83
277.28 K | – | 260.82
280 K | – | 262.5
283.39 K | – | 264.31
289.47 K | – | 267.64
290 K | – | 268
295.52 K | – | 270.8
298.15 K | – | 271.9
300 K | – | 272.6
300.23 K | – | 272.71
300.79 K | – | 273.13
301.54 K | – | 273.46
304.11 K | – | 274.29
304.68 K | – | 274.54
307.54 K | – | 275.37
307.98 K | – | 275.62
308.57 K | – | 275.71
310 K | – | 276.3
311.84 K | – | 276.95
312.43 K | – | 277.2
313.51 K | – | 277.62
315.67 K | – | 278.2
316.31 K | – | 278.53
319.32 K | – | 279.36
319.51 K | – | 279.86
320 K | – | 279.8
320.02 K | – | 279.95
323.33 K | – | 281.36
323.89 K | – | 281.44
325.26 K | – | 281.86
327.15 K | – | 283.02
327.74 K | – | 283.02
330 K | – | 284.4
330.95 K | – | 285.27
331.19 K | – | 285.18
331.59 K | – | 285.27
334.56 K | – | 287.35
335.41 K | – | 288.01
337.07 K | – | 289.09
338.32 K | – | 289.92
339.23 K | – | 290.51
340 K | – | 290.8
342.07 K | – | 292.33
342.92 K | – | 292.67
343.02 K | – | 292.75
345.8 K | – | 294.83
346.79 K | – | 295.24
348.74 K | – | 295.99
349.52 K | – | 296.82
350 K | – | 297
350.54 K | – | 297.49
